29 compounds from US20140206682A1, “COMPOUNDS AND COMPOSITIONS AS PDGFR KINASE INHIBITORS” (NOVARTIS PHARMACEUTICALS UK LIMITED, priority 2011, published 2014) can be followed below.

One assay deals with PDGFR. Put plainly: Rat A10 cell proliferation assay. The following applies: Table 1; Rat A10 cells, recombinant rat PDGF-BB, CellTiter-Glo after 68 hours. It counts as cell-based. How it is done: Compounds of Formula (I) provided herein were assayed to measure their capacity to inhibit c-kit and PDGFR kinases using the appropriate assay described below: c-Kit inhibition was evaluated using the Mo7e cell proliferation assay, and PDGFR inhibition was evaluated using the Rat A10 cell proliferation assay and the Human TG/HA-VSMC cell proliferation assay.
Rat A10 cells (ATCC) were resuspended in DMEM supplemented with 1% FBS and 10 ng/mL recombinant rat PDGF-BB at 20,000 cells/mL. The cells were aliquoted into 384 well plates at 50 μL/well and incubated for 4 hours at 37° C. 0.5 μL of test compound 3-fold serially diluted in DMSO was added to each well. The plates were returned to the incubator for a further 68 hours. 25 μL of CellTiter-Glo (Promega) was added to each well and the plates were incubated on the bench for 15 minutes. Luminescence was then read using a CLIPR CCD camera (Molecular Devices).
Background: ATP-based viability assays read luminescence as a measure of living cells.
Take `O=C(N[C@@H]1c2ccccc2OC[C@@H]1O)c1ccc(F)c(NC(=O)c2cnc3ccccn23)c1` (racemic) [F34, N-(2-fluoro-5-{[(3R,4R)-3-hydroxy-3,4-dihydro-2H-1-benzopyran-4-yl]carbamoyl}phenyl)imidazo[1,2-a]pyridine-3-carboxamide]: the IC50 is 195 nM.

Consider `CN(C)CCCOc1ccc(-c2ccn3c(C(=O)Nc4cc(C(=O)N[C@H]5Cc6ccccc6[C@H]5O)ccc4F)cnc3c2)cn1` (stereo in doubt) [F32, 7-{6-[3-(dimethylamino)propoxy]pyridin-3-yl}-N-(2-fluoro-5-{[(1R,2S)-1-hydroxy-2,3-dihydro-1H-inden-2-yl]carbamoyl}phenyl)imidazo[1,2-a]pyridine-3-carboxamide], for which the IC50 was 44 nM.

Regarding `Cc1ccc2ncc(C(=O)Nc3cc(C(=O)N[C@@H]4c5cc(Cl)ccc5C[C@@H]4O)ccc3F)n2c1` (stereo in doubt) [F33, N-(5-{[(1R,2S)-6-chloro-2-hydroxy-2,3-dihydro-1H-inden-1-yl]carbamoyl}-2-fluorophenyl)-6-methylimidazo[1,2-a]pyridine-3-carboxamide], the IC50 turned out to be 163 nM.

For the compound `Cc1ccc(C(=O)NC(CO)Cc2ccccc2)cc1NC(=O)c1cnc2ccccn12` (centres unmarked) [F1, N-{5-[(1-hydroxy-3-phenylpropan-2-yl)carbamoyl]-2-methylphenyl}imidazo[1,2-a]pyridine-3-carboxamide], the IC50 is 82 nM.

Regarding `Cc1ccc(C(=O)NC(CO)c2ccccc2)cc1NC(=O)c1cnc2ccccn12` (centres unmarked) [F2, N-{5-[(2-hydroxy-1-phenylethyl)carbamoyl]-2-methylphenyl}imidazo[1,2-a]pyridine-3-carboxamide], the IC50 was determined as 146 nM.

For `Cc1ccc(C(=O)NC(CO)C(C)C)cc1NC(=O)c1cnc2ccccn12` (centres unmarked) [F3, N-{5-[(1-hydroxy-3-methylbutan-2-yl)carbamoyl]-2-methylphenyl}imidazo[1,2-a]pyridine-3-carboxamide], the concentration for half-maximal inhibition (IC50) is 175 nM.

For the compound `O=C(NC(CO)c1ccccc1)c1ccc(F)c(NC(=O)c2cnc3ccccn23)c1` (centres unmarked) [F4, N-{2-fluoro-5-[(2-hydroxy-1-phenylethyl)carbamoyl]phenyl}imidazo[1,2-a]pyridine-3-carboxamide], the IC50 stood at 89 nM.

Take `O=C(N[C@@H]1c2ccccc2C[C@@H]1O)c1ccc(F)c(NC(=O)c2cnc3ccccn23)c1` [F5, N-(2-fluoro-5-{[(1R,2S)-2-hydroxy-2,3-dihydro-1H-inden-1-yl]carbamoyl}phenyl)imidazo[1,2-a]pyridine-3-carboxamide]: the half-maximal inhibitory concentration (IC50) was 35 nM.

Turning to `O=C(N[C@H]1c2ccccc2C[C@H]1O)c1ccc(F)c(NC(=O)c2cnc3ccccn23)c1` [F6, N-(2-fluoro-5-{[(1S,2R)-2-hydroxy-2,3-dihydro-1H-inden-1-yl]carbamoyl}phenyl)imidazo[1,2-a]pyridine-3-carboxamide], the IC50 came out at 86 nM.

In the case of `O=C(N[C@@H]1c2ccccc2C[C@H]1O)c1ccc(F)c(NC(=O)c2cnc3ccccn23)c1` [F7, N-(2-fluoro-5-{[(1R,2R)-2-hydroxy-2,3-dihydro-1H-inden-1-yl]carbamoyl}phenyl)imidazo[1,2-a]pyridine-3-carboxamide], the IC50 was determined as 138 nM.

Regarding `O=C(N[C@H]1c2ccccc2C[C@@H]1O)c1ccc(F)c(NC(=O)c2cnc3ccccn23)c1` [F8, N-(2-fluoro-5-{[(1S,2S)-2-hydroxy-2,3-dihydro-1H-inden-1-yl]carbamoyl}phenyl)imidazo[1,2-a]pyridine-3-carboxamide], the half-inhibitory concentration (IC50) was 38 nM.

With `O=C(N[C@H]1CCCC[C@@H]1O)c1ccc(F)c(NC(=O)c2cnc3ccccn23)c1` [F9, N-(2-fluoro-5-{[(1S,2S)-2-hydroxycyclohexyl]carbamoyl}phenyl)imidazo[1,2-a]pyridine-3-carboxamide], the IC50 was 70 nM.

For `O=C(NC1Cc2ccccc2C1O)c1ccc(F)c(NC(=O)c2cnc3cc(Br)ccn23)c1` (centres unmarked) [F10, 7-bromo-N-{2-fluoro-5-[(1-hydroxy-2,3-dihydro-1H-inden-2-yl)carbamoyl]phenyl}imidazo[1,2-a]pyridine-3-carboxamide], the half-maximal inhibitory concentration (IC50) was 130 nM.

Regarding `O=C(N[C@@H]1CCCC[C@@H]1O)c1ccc(F)c(NC(=O)c2cnc3ccccn23)c1` [F11, N-(2-fluoro-5-{[(1R,2S)-2-hydroxycyclohexyl]carbamoyl}phenyl)imidazo[1,2-a]pyridine-3-carboxamide], the half-maximal inhibitory concentration (IC50) came to 199 nM.

Staying with this assay, now noted: Table 2; Rat A10 cells, recombinant rat PDGF-BB, CellTiter-Glo after 68 hours.
Consider `O=C(N[C@@H]1c2ccccc2C[C@@H]1O)c1ccc(F)c(NC(=O)c2cnc3cc(C(F)(F)F)ccn23)c1` (stereo in doubt) [F40, N-(2-fluoro-5-{[(1R,2S)-2-hydroxy-2,3-dihydro-1H-inden-1-yl]carbamoyl}phenyl)-7-(trifluoromethyl)imidazo[1,2-a]pyridine-3-carboxamide], for which the IC50 came out at 261 nM.

`Cc1ccc2ncc(C(=O)Nc3cc(C(=O)N[C@@H]4c5ccc(Cl)cc5C[C@@H]4O)ccc3F)n2c1` (stereo in doubt) [F41, N-(5-{[(1R,2S)-5-chloro-2-hydroxy-2,3-dihydro-1H-inden-1-yl]carbamoyl}-2-fluorophenyl)-6-methylimidazo[1,2-a]pyridine-3-carboxamide]: the IC50 is 272 nM.

Take `O=C(N[C@@H]1c2cc(Cl)ccc2C[C@@H]1O)c1ccc(F)c(NC(=O)c2cnc3ccc(F)cn23)c1` (stereo in doubt) [F42, N-(5-{[(1R,2S)-6-chloro-2-hydroxy-2,3-dihydro-1H-inden-1-yl]carbamoyl}-2-fluorophenyl)-6-fluoroimidazo[1,2-a]pyridine-3-carboxamide]: the IC50 amounted to 277 nM.

As to `O=C(NC1CCCC[C@H]1CO)c1ccc(F)c(NC(=O)c2cnc3ccccn23)c1` (stereo in doubt) [F43, N-(2-fluoro-5-{[(1R,2R)-2-(hydroxymethyl)cyclohexyl]carbamoyl}phenyl)imidazo[1,2-a]pyridine-3-carboxamide], the IC50 is 294 nM.

With `O=C(NC(CO)c1ccccc1)c1cccc(NC(=O)c2cnc3ccccn23)c1` (stereo in doubt) [F44, N-(3-{[(1S)-2-hydroxy-1-phenylethyl]carbamoyl}phenyl)imidazo[1,2-a]pyridine-3-carboxamide], the IC50 was found to be 311 nM.

Take `COc1ccc2c(c1)[C@@H](NC(=O)c1ccc(F)c(NC(=O)c3cnc4ccc(C)cn34)c1)[C@@H](O)C2` (stereo in doubt) [F45, N-(2-fluoro-5-{[(1R,2S)-2-hydroxy-6-methoxy-2,3-dihydro-1H-inden-1-yl]carbamoyl}phenyl)-6-methylimidazo[1,2-a]pyridine-3-carboxamide]: the half-inhibitory concentration (IC50) was determined as 345 nM.

As for `O=C(N[C@H]1Cc2ccccc2[C@H]1O)c1ccc(F)c(NC(=O)c2cnc3ccccn23)c1` (stereo in doubt) [F46, N-(2-fluoro-5-{[(1R,2S)-1-hydroxy-2,3-dihydro-1H-inden-2-yl]carbamoyl}phenyl)imidazo[1,2-a]pyridine-3-carboxamide], the concentration for half-maximal inhibition (IC50) came out at 348 nM.

As to `O=C(N[C@@H]1c2ccccc2C[C@@H]1O)c1cccc(NC(=O)c2cnc3ccccn23)c1` (stereo in doubt) [F47, N-(3-{[(1R,2S)-2-hydroxy-2,3-dihydro-1H-inden-1-yl]carbamoyl}phenyl)imidazo[1,2-a]pyridine-3-carboxamide], the IC50 worked out at 356 nM.

With `O=C(N[C@@H]1c2ccccc2C[C@@H]1O)c1ccc(F)c(NC(=O)c2cnc3ccc(N4CCOCC4)cn23)c1` (stereo in doubt) [F54, N-(2-fluoro-5-{[(1R,2S)-2-hydroxy-2,3-dihydro-1H-inden-1-yl]carbamoyl}phenyl)-6-(morpholin-4-yl)imidazo[1,2-a]pyridine-3-carboxamide], the IC50 turned out to be 477 nM.

In the case of `O=C(N[C@@H]1c2ccccc2C[C@@H]1O)c1ccc(F)c(NC(=O)c2cnc3ccc(C(F)(F)F)cn23)c1` (stereo in doubt) [F58, N-(2-fluoro-5-{[(1R,2S)-2-hydroxy-2,3-dihydro-1H-inden-1-yl]carbamoyl}phenyl)-6-(trifluoromethyl)imidazo[1,2-a]pyridine-3-carboxamide], the IC50 amounted to 584 nM.

With `O=C(N[C@@H]1c2ccccc2C[C@@H]1O)c1ccc(F)c(NC(=O)c2cnc3ccc(COCC(F)(F)F)cn23)c1` (stereo in doubt) [F61, N-(2-fluoro-5-{[(1R,2S)-2-hydroxy-2,3-dihydro-1H-inden-1-yl]carbamoyl}phenyl)-6-[(2,2,2-trifluoroethoxy)methyl]imidazo[1,2-a]pyridine-3-carboxamide], the IC50 was 618 nM.

Turning to `O=C(N[C@H]1CCCC1O)c1ccc(F)c(NC(=O)c2cnc3ccccn23)c1` (stereo in doubt) [F62, N-(2-fluoro-5-{[(1S,2S)-2-hydroxycyclopentyl]carbamoyl}phenyl)imidazo[1,2-a]pyridine-3-carboxamide], the IC50 was found to be 684 nM.

Regarding `O=C(N[C@@H]1CCC[C@@H]1O)c1ccc(F)c(NC(=O)c2cnc3ccccn23)c1` (stereo in doubt) [F66, N-(2-fluoro-5-{[(1R,2S)-2-hydroxycyclopentyl]carbamoyl}phenyl)imidazo[1,2-a]pyridine-3-carboxamide], the IC50 was determined as 1180 nM.

For `O=C(N[C@H]1CCCCC1O)c1cccc(NC(=O)c2cnc3ccccn23)c1` (stereo in doubt) [F67, N-(3-{[(1S,2S)-2-hydroxycyclohexyl]carbamoyl}phenyl)imidazo[1,2-a]pyridine-3-carboxamide], the IC50 came out at 1360 nM.

Turning to `O=C(N[C@@H]1c2ccccc2C[C@@H]1O)c1ccc(F)c(NC(=O)c2cnc3ccc(-n4ccnc4)cn23)c1` (stereo in doubt) [F72, N-(2-fluoro-5-{[(1R,2S)-2-hydroxy-2,3-dihydro-1H-inden-1-yl]carbamoyl}phenyl)-6-(1H-imidazol-1-yl)imidazo[1,2-a]pyridine-3-carboxamide], the IC50 was found to be 2860 nM.

As usually defined, the IC50 is the midpoint of a concentration-inhibition curve.
